Values quoted from earlier work, collected in article PMC10713630, “Elucidation of the structural basis for ligand binding and translocation in conserved insect odorant receptor co-receptors” (Nature Communications, 2023).

What was measured:
[1] = test system: AgamOrco/AgamOR65; details: cited from earlier work
[2] = test system: MhraOR5; set-up: method as in PMID 34349260; details: cited from earlier work
[3] = test system: MhraOR5 M209V; set-up: method as in Del Marmol et al. 3; details: ref Del Marmol et al. 3; cited from earlier work
[4] = test system: MhraOR1 G169A; set-up: method as in Del Marmol et al. 3; details: ref Del Marmol et al. 3; cited from earlier work

SMILES | EC50 ([1]; AgamOrco/AgamOR65, ref Tailor et al. 1) | Potency relative to VUAA1 ([1]; ranked by EC50) | Agonist of MhraOR5 [2] | Effect on DEET-induced channel response [3] | Effect on Eugenol-induced channel response [4]
CC(C)c1ccc(NC(=O)CSc2nnc(-c3ccncc3)n2C2CC2)cc1 [VUAA4] | 2100 nM | greater potency |  |  | 
CCN(CC)C(=O)c1cccc(C)c1 [DEET] |  |  | agonists | I | 
C=CCc1ccc(O)c(OC)c1 [Eugenol, eugenol] |  |  | agonists |  | I
